According to patent US9856274B2, “Substituted pyrazolo[1,5-a]pyridines as PDE-10 inhibitors” (Sunovion Pharmaceuticals Inc., priority 2011, dated 2018):

The compounds below were run against recombinant human PDE-10 enzyme (Homo sapiens (Human), UniProt Q9Y233) (assay: Human PDE-10 inhibition enzyme assay (IMAP PDE Fluorescence Polarization)). Conditions: recombinant human PDE-10 expressed in baculoviral system; Fluorescein-labeled cAMP/cGMP substrate; 40-minute incubation at 37° C.
Type: biochemical
Method: In one embodiment, the compounds provided herein were assayed for their ability to inhibit human PDE-10A. In one embodiment, the activities of the compounds were determined using the Molecular Devices IMAP PDE Fluorescence Polarization assay using recombinant human PDE-10 enzyme expressed in a baculoviral system. Briefly, 10 μL of a compound (0.2 nM-20 μM) was added to either a 96-well half area black plate or a 384-well black plate along with 10 μL of Fluorescein-labeled cAMP/cGMP substrate as per manufacturer's instructions and 10 μL of PDE enzyme (activity 0.1 U). Following a 40-minute incubation at 37° C., 60 μL of IMAP binding reagent was added. The plate was then read on a Perkin Elmer Victor (480-535 nm). The data was analyzed using Prism Software (GraphPad Inc, San Diego, Calif.).

Sequence of recombinant human PDE-10 enzyme (Q9Y233 whole entry): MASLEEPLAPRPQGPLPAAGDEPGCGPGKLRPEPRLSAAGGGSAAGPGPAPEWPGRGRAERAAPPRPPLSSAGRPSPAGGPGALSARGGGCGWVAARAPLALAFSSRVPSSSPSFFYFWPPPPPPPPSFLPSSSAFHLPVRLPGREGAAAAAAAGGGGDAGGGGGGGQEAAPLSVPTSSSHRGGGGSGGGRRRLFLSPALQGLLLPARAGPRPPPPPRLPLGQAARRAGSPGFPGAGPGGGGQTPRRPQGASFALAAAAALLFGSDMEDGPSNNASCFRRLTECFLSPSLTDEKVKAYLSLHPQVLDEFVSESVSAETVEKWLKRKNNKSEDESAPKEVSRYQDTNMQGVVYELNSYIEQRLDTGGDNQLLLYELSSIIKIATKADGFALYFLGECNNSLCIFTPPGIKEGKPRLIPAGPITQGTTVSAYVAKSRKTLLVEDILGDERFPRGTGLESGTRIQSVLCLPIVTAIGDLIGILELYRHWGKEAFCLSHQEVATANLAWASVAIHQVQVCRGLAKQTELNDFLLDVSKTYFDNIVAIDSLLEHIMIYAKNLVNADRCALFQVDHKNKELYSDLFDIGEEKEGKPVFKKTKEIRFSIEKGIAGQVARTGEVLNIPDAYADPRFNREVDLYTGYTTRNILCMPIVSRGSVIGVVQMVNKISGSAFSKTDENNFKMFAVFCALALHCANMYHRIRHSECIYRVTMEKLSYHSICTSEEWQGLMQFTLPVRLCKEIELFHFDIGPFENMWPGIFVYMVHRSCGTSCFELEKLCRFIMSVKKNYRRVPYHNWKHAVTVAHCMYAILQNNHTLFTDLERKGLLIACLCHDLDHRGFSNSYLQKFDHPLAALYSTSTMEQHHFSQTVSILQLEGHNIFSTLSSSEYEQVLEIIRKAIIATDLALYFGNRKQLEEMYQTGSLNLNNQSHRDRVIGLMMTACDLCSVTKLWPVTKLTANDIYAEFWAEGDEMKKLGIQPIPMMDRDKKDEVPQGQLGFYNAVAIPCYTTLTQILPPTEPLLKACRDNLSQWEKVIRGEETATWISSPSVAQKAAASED

Row | SMILES | IC50
1 | Cc1ncc(C)n2nc(CCc3nc4ccccn4n3)nc12 [Compound 3] | > 500 nM
2 | Cn1c(CCc2nc3ccccc3o2)nc2c3cccnc3ccc21 [Compound 4] | 100 to 500 nM
3 | Cc1ncc(C)n2nc(CCc3nc4ccc5ncccc5n4n3)nc12 [Compound 12] | 100 to 500 nM
4 | Cc1cccc2nc(CCc3nc4c5cccnc5ccn4n3)nn12 [Compound 14] | 10 to 100 nM
5 | c1cnc2ccn3nc(CCc4nc5ccccn5n4)nc3c2c1 [Compound 15] | > 500 nM
6 | Cc1cc(C)n2nc(CCc3nc4c5cccnc5ccn4n3)nc2n1 [Compound 17] | 10 to 100 nM
7 | Cn1c(CCc2nc3ccccn3n2)nc2c3ncccc3ccc21 [Compound 20] | 100 to 500 nM
8 | Cn1c(CCc2nc3ccccn3n2)nc2c3nccnc3ccc21 [Compound 21] | 100 to 500 nM
9 | c1cnc2c(c1)ccn1nc(CCc3nc4ccccn4n3)nc21 [Compound 22] | > 500 nM
10 | Cc1cccc2nc(CCc3nc4n(n3)CCc3ncccc3-4)nn12 [Compound 23, 2-(2-(5-Methyl-[1,2,4]triazolo[1,5-a]pyridin-2-yl)ethyl)-5,6-dihydro-[1,2,4]triazolo[5,1-f][1,6]naphthyridine] | > 500 nM
11 | Cc1ncc(C)n2cc(CCc3nc4c5cccnc5ccc4n3C)nc12 [Compound 25] | 10 to 100 nM
12 | Cn1c(CCc2cn3ccccc3n2)nc2c3cccnc3ccc21 [Compound 26] | > 500 nM
13 | Cc1ncc(C)n2cc(CCc3nc4c5cccnc5ccn4n3)nc12 [Compound 27] | 10 to 100 nM
14 | Cc1ncc(C)n2nc(CCc3nc4c(ccc5ncccc54)[nH]3)cc12 [Compound 28] | 10 to 100 nM
15 | Cc1ncc(C)n2nc(CC(C)c3nc4c5cccnc5ccc4n3C)nc12 (centres unmarked) [Compound 30] | 10 to 100 nM
16 | Cn1c(CCc2cn3ccncc3n2)nc2c3cccnc3ccc21 [Compound 31] | > 500 nM
17 | Cc1ccc(C)n2cc(CCc3nc4c5cccnc5ccc4n3C)nc12 [Compound 32] | 10 to 100 nM
18 | Cc1ccc(C)n2cc(CCc3nc4c5cccnc5ccn4n3)nc12 [Compound 34] | 100 to 500 nM
19 | Cc1ncc(C)n2nc(CCc3nc4c5cccnc5ccn4n3)cc12 [Compound 35] | 10 to 100 nM
20 | Cc1ncc(C)n2nc(CCc3nc4c5c(ccn4c3C)NCCO5)nc12 [Compound 41] | 10 to 100 nM

The next lines start with the values.

Row | IC50 | SMILES
21 | 10 to 100 nM | Cc1ncc(C)n2nc(CCc3cn4ccccc4n3)nc12 [Compound 1]
22 | 10 to 100 nM | Cn1c(CCc2nc3ccccn3n2)nc2c3cccnc3ccc21 [Compound 5]
23 | ≤ 10 nM | Cc1ncc(C)n2nc(CCc3nc4c5cccnc5ccc4n3C)nc12 [Compound 6]
24 | ≤ 10 nM | Cc1ncc(C)n2nc(CCc3nc4c5cccnc5sc4n3C)nc12 [Compound 7]
25 | ≤ 10 nM | Cc1cccc2nc(CCc3nc4c5cccnc5ccc4n3C)nn12 [Compound 8]
26 | ≤ 10 nM | Cc1cccn2nc(CCc3nc4c5cccnc5ccc4n3C)nc12 [Compound 9]
27 | 10 to 100 nM | Cc1cnc(C)n2nc(CCc3nc4c5cccnc5ccc4n3C)nc12 [Compound 10]
28 | ≤ 10 nM | Cc1ccc(C)n2nc(CCc3nc4c5cccnc5ccc4n3C)nc12 [Compound 11]
29 | 10 to 100 nM | Cc1ncc(C)n2nc(CCc3nc4c5cccnc5ccn4n3)nc12 [Compound 13]
30 | ≤ 10 nM | Cc1ccc(C)n2nc(CCc3nc4c5cccnc5ccn4n3)nc12 [Compound 16]
31 | ≤ 10 nM | Cc1ncc(C)n2nc(CCc3nc4c5ncccc5ccc4n3C)nc12 [Compound 18]
32 | ≤ 10 nM | Cc1ncc(C)n2nc(CCc3nc4c5nccnc5ccc4n3C)nc12 [Compound 19]
33 | ≤ 10 nM | Cc1ncc(C)n2nc(CCc3nc4c5cccnc5ccc4n3C)cc12 [Compound 24]
34 | ≤ 10 nM | Cc1ncc(C)n2nc(C(C)Cc3nc4c5cccnc5ccc4n3C)nc12 (centres unmarked) [Compound 29]
35 | ≤ 10 nM | Cc1ccc(Cl)c2cc(CCc3nc4c5cccnc5ccc4n3C)nn12 [Compound 33]
36 | ≤ 10 nM | Cc1ncc(C)n2nc(CCc3nc4c(ccc5ncccc54)[nH]3)nc12 [Compound 36]
37 | ≤ 10 nM | Cc1ncc(C)n2nc(CCc3nc4c5c(ccc4n3C)CCCC5)nc12 [Compound 37]
38 | ≤ 10 nM | Cc1ncc(C)n2nc(CCc3nc4c5c(ccn4c3C)CCCC5)nc12 [Compound 38]
39 | ≤ 10 nM | Cc1ncc(C)n2nc(CCc3nc4c5cccnc5ccn4c3C)nc12 [Compound 39]
40 | ≤ 10 nM | Cc1c(CCc2nc3c(F)ccc(C)n3n2)nc2c3cccnc3ccn12 [Compound 40]
41 | ≤ 10 nM | Cc1ncc(C)n2nc(CCc3nc4c5c(ccc4n3C)OCCO5)nc12 [Compound 42]
